# Measurements as given in patent US20220096538A1, “PHARMACEUTICAL COMPOSITIONS AND METHODS FOR PREVENTION AND/OR TREATMENT OF INFLAMMATION” (priority 2020, published 2022).
# Several values for one entry are separate records, joined by “and”; a condition that tells them apart may be missing. Identical values can stand only once.
# What was measured:
# [1] = cited from earlier work; for Approximate Equivalent Dose: equivalent to 0.75 mg dexamethasone
# [2] = test system: LPS-GalN induced liver injury; assay: LPS-GalN model, treatment 2 h post LPS-GalN: liver histopathological score
# LPS-GalN challenged mice = assay: LPS-GalN model of fatal cytokine storm and sepsis, treatment 2 h post LPS-GalN: 24 h survival
# [3] = test system: LPS-GalN induced acute lung injury; assay: LPS-GalN model, treatment 2 h post LPS-GalN: lung histopathological (ALI) score; settings: for Mean±SE ALI score: scale 0 to 4
# [4] = low dose RJX, standard dose DEX, alone or combined, 2 h post LPS-GalN
# [5] = DEX 0.1 mg/kg i.p. 2 h post LPS-GalN, n=6
# [6] = DEX 0.6 mg/kg i.p. 2 h post LPS-GalN, n=6
# [7] = DEX 6.0 mg/kg i.p. 2 h post LPS-GalN, n=6
# [8] = RJX 0.7 ml/kg, DEX 0.6 mg/kg, alone or combined, 2 h post LPS-GalN
smiles,measurement,setting,value
C[C@]12CCC(=O)C=C1CC[C@H]1[C@@H]3CC[C@](O)(C(=O)CO)[C@@]3(C)C[C@H](O)[C@@]12F [Fludrocortisone],Anticipated Half-life,[1],12 to 26 h and 12 to 36 h
C[C@]12CCC(=O)C=C1CC[C@@H]1[C@@H]2C(=O)C[C@@]2(C)[C@H]1CC[C@]2(O)C(=O)CO [Cortisone],Approximate Equivalent Dose,[1],25 mg
C[C@]12C=CC(=O)C=C1CC[C@@H]1[C@@H]2[C@@H](O)C[C@@]2(C)[C@H]1CC[C@]2(O)C(=O)CO [Prednisolone],Approximate Equivalent Dose,[1],5 mg
C[C@]12CCC(=O)C=C1CC[C@@H]1[C@@H]2[C@@H](O)C[C@@]2(C)[C@H]1CC[C@]2(O)C(=O)CO [Hydrocortisone],Approximate Equivalent Dose,[1],20 mg
C[C@]12C=CC(=O)C=C1CC[C@H]1[C@@H]3C[C@@H](O)[C@](O)(C(=O)CO)[C@@]3(C)C[C@H](O)[C@@]12F [Triamcinolone],Approximate Equivalent Dose,[1],4 mg
"C[C@@H]1C[C@H]2[C@@H]3CCC4=CC(=O)C=C[C@]4(C)[C@@]3(F)[C@@H](O)C[C@]2(C)[C@@]1(O)C(=O)CO [DEX, dexamethasone]",histopathological liver damage score (Mean±SE),[2]; DEX 0.1 mg/kg,3.3±0.2
same,histopathological liver damage score (Mean±SE),[2]; DEX 0.6 mg/kg,2.7±0.2
same,liver score median,[2]; DEX 0.6 mg/kg,3
same,histopathological liver damage score (Mean±SE),[2]; DEX 6.0 mg/kg,2.3±0.2
same,liver score median,[2]; DEX 6.0 mg/kg,3
same,"liver histopathological scores, range",[2]; DEX (0.1),3-4
same,"Liver Histopathological Score: ≥3 (severe damage or more), percent of mice",[2]; [4],50%
same,Censored,LPS-GalN challenged mice; [5],1
same,Events,LPS-GalN challenged mice; [5],5
same,Median (survival),LPS-GalN challenged mice; [5],5.1 h
same,Proportion (events; 24-h mortality),LPS-GalN challenged mice; [5],83.3%
same,Censored,LPS-GalN challenged mice; [6],3
same,Events,LPS-GalN challenged mice; [6],3
same,Median (survival),LPS-GalN challenged mice; [6],15.0 h
same,Proportion (events; mortality),LPS-GalN challenged mice; [6],50.0%
same,Censored,LPS-GalN challenged mice; [7],4
same,Events,LPS-GalN challenged mice; [7],2
same,Proportion (events; mortality),LPS-GalN challenged mice; [7],33.3%
same,Censored,"LPS-GalN challenged mice; RJX 0.7 ml/kg (6-fold diluted 4.2 mL/kg), DEX 0.6 mg/kg, alone or combined, 2 h post LPS-GalN",5
same,Events,LPS-GalN challenged mice; [8],5
same,Median (survival),LPS-GalN challenged mice; [8],17.6 h
same,Proportion (events),LPS-GalN challenged mice; [8],50.0%
same,"lung histopathological ALI score, Median",[3]; DEX 0.1 mg/kg,3.5
same,"lung histopathological ALI scores, range",[3]; DEX 0.1 mg/kg,3-4
same,Mean±SE ALI score,[3]; DEX 0.1 mg/kg,3.5±0.2
same,"lung histopathological ALI score, Median",[3]; DEX 0.6 mg/kg,3
same,"lung histopathological ALI scores, range",[3]; DEX 0.6 mg/kg,2-4
same,Mean±SE ALI score,[3]; DEX 0.6 mg/kg,2.8±0.3
same,"lung histopathological ALI score, Median",[3]; DEX 6.0 mg/kg,2
same,"lung histopathological ALI scores, range",[3]; DEX 6.0 mg/kg,1-3
same,Mean±SE ALI score,[3]; DEX 6.0 mg/kg,1.8±0.3
same,"Lung Histopathological Score: ≥3 (severe damage or more), percent of mice",[3]; [4],50%
same,ALI score of a representative mouse,"[3]; single dose at 2 hours post-LPS-GalN, sacrificed at 24 hours, low dose RJX, high dose DEX or both",2
